Reference: the CheMixHub ionic liquid set

Assay: xn = mol fraction of the nth substance listed
Settings: for electrical conductivity: 101.3 kPa; for viscosity: 100 kPa

CCCC[n+]1ccn(C)c1.[Cl-] + OC[C@H]1O[C@@](CO)(O[C@H]2O[C@H](CO)[C@@H](O)[C@H](O)[C@H]2O)[C@@H](O)[C@@H]1O + O
298.15 K
Settings	electrical conductivity [S/m]
x2 = 0, x1 = 8.71e-06	0.00583
x2 = 0, x1 = 1.208e-05	0.00794
x2 = 0, x1 = 1.485e-05	0.00965
x2 = 0, x1 = 1.707e-05	0.01101
x2 = 0, x1 = 1.937e-05	0.01241
x2 = 0, x1 = 2.164e-05	0.0138
x2 = 0, x1 = 2.397e-05	0.0152
x2 = 0, x1 = 2.6e-05	0.0164
x2 = 0, x1 = 2.824e-05	0.0177
x2 = 0, x1 = 3.029e-05	0.019
x2 = 0.003591, x1 = 1.096e-05	0.00618
x2 = 0.003591, x1 = 1.434e-05	0.00795
x2 = 0.003591, x1 = 1.771e-05	0.0097
x2 = 0.003591, x1 = 2.081e-05	0.0113
x2 = 0.003591, x1 = 2.41e-05	0.013
x2 = 0.003591, x1 = 2.709e-05	0.0145
x2 = 0.003591, x1 = 3.023e-05	0.01612
x2 = 0.003591, x1 = 3.313e-05	0.0176
x2 = 0.003591, x1 = 3.593e-05	0.019
x2 = 0.007156, x1 = 8.21e-06	0.00407
x2 = 0.007156, x1 = 1.202e-05	0.00576
x2 = 0.007156, x1 = 1.591e-05	0.00748
x2 = 0.007156, x1 = 1.939e-05	0.009
x2 = 0.007156, x1 = 2.274e-05	0.0105
x2 = 0.007156, x1 = 2.585e-05	0.0118
x2 = 0.007156, x1 = 2.894e-05	0.01315
x2 = 0.007156, x1 = 3.183e-05	0.01439
x2 = 0.007156, x1 = 3.476e-05	0.0156
x2 = 0.007156, x1 = 3.761e-05	0.0169
x2 = 0.0107, x1 = 9.71e-06	0.00386
x2 = 0.0107, x1 = 2.409e-05	0.00888
x2 = 0.0107, x1 = 3.038e-05	0.01101
x2 = 0.0107, x1 = 3.477e-05	0.0125
x2 = 0.0107, x1 = 3.967e-05	0.01408
x2 = 0.0107, x1 = 4.399e-05	0.0155
x2 = 0.0107, x1 = 4.83e-05	0.0169
x2 = 0.0107, x1 = 5.264e-05	0.01825
x2 = 0.0107, x1 = 5.673e-05	0.0195
x2 = 0.01421, x1 = 1.037e-05	0.00348
x2 = 0.01421, x1 = 1.591e-05	0.00514
x2 = 0.01421, x1 = 2.109e-05	0.00667
x2 = 0.01421, x1 = 2.647e-05	0.00823
x2 = 0.01421, x1 = 3.163e-05	0.00971
x2 = 0.01421, x1 = 3.643e-05	0.01107
x2 = 0.01421, x1 = 4.107e-05	0.01237
x2 = 0.01421, x1 = 4.582e-05	0.0137
x2 = 0.01421, x1 = 5.048e-05	0.015
x2 = 0.01421, x1 = 5.498e-05	0.01621
x2 = 0.01421, x1 = 5.983e-05	0.0175
x2 = 0.0177, x1 = 1.237e-05	0.00351
x2 = 0.0177, x1 = 1.842e-05	0.00504
x2 = 0.0177, x1 = 2.347e-05	0.00631
x2 = 0.0177, x1 = 2.887e-05	0.00764
x2 = 0.0177, x1 = 3.44e-05	0.00899
x2 = 0.0177, x1 = 4.072e-05	0.0105
x2 = 0.0177, x1 = 4.633e-05	0.0118
x2 = 0.0177, x1 = 5.265e-05	0.01333
x2 = 0.0177, x1 = 5.909e-05	0.0148
x2 = 0.0177, x1 = 6.545e-05	0.0163
x2 = 0.0177, x1 = 7.135e-05	0.0176

CCCC[n+]1ccn(C)c1.[Cl-] + OC[C@H]1O[C@H](O[C@H]2[C@H](O)[C@@H](O)C(O)O[C@@H]2CO)[C@H](O)[C@@H](O)[C@@H]1O + O
298.15 K
Settings	electrical conductivity [S/m]
x2 = 0, x1 = 8.71e-06	0.00583
x2 = 0, x1 = 1.208e-05	0.00794
x2 = 0, x1 = 1.485e-05	0.00965
x2 = 0, x1 = 1.707e-05	0.01101
x2 = 0, x1 = 1.937e-05	0.01241
x2 = 0, x1 = 2.164e-05	0.0138
x2 = 0, x1 = 2.397e-05	0.0152
x2 = 0, x1 = 2.6e-05	0.0164
x2 = 0, x1 = 2.824e-05	0.0177
x2 = 0, x1 = 3.029e-05	0.019

CCCCCCCCn1cc[n+](C)c1.[Br-] + [Cl-].[Li+] + O
298.15 K
Settings	viscosity [mPa·s]
x2 = 0, x3 = 0.9487	7.96
x2 = 0.00845, x3 = 0.9403	7.94
x2 = 0.0171, x3 = 0.9316	8.68
x2 = 0.02497, x3 = 0.9237	10.09
x2 = 0.03315, x3 = 0.9155	10.9
x2 = 0.04088, x3 = 0.9078	12.6

CCCC[n+]1ccn(C)c1.O=S(=O)([O-])C(F)(F)F + c1ccccc1
Settings	viscosity [mPa·s]
298.15 K, x2 = 0	88
298.15 K, x2 = 0.122	64.3
298.15 K, x2 = 0.573	12.62
308.15 K, x2 = 0.122	42.2
308.15 K, x2 = 0.304	25.4
318.15 K, x2 = 0.467	10.64
318.15 K, x2 = 0.573	7.22
328.15 K, x2 = 0.304	13.62
328.15 K, x2 = 0.467	8.2
